Patent US20230218555A1, “CREATINE, ITS DERIVATIVES, COMPOSITIONS AND METHODS OF USE THEREOF” (priority 2021, published 2023)

How the values were obtained:
Assay type in all cases: in vivo, human
[1] = test system: acute pain in the left side of their neck; assay: Example 11: acute neck pain; conditions: 1.5% in water: propylene glycol 8:2, topical to neck
Description: A subject who had shoveled heavy snow all day, throwing the snow mostly to left, upon arising from bed the next morning experienced acute pain in the left side of their neck that intensified as they attempted to move their head in any direction.

[2] = test system: osteoarthritis of multiple joints; assay: Example 18: whole body application
Protocol: A subject with continually worsening very painful osteoarthritis of multiple joints for 15-16 years prepared the following formulation: […]
N-Acetyl Ethyl Creatinate (C15): Water: Propylene glycol: Mineral Oil: Sodium lauryl sulfate […].
After taking a morning shower, the entire 40 ml formulation was applied by themself and their assistants to their entire body, except the scalp. […] The subject was without any sense of pain for 4.5 hours when mild painful discomfort in the neck was sensed. Over the next 3 hours pain in all joints returned to usual substantial levels.

[3] = test system: osteoarthritis of numerous joints; assay: Example 19: abdominal subcutaneous injections
Protocol: A physician subject with continually worsening, for 15-16 years, painful osteoarthritis of numerous joints (almost entire spine, wrists, right shoulder, knees and most recently the feet) on one day at 11:30 AM self injected subcutaneously the right abdominal area with 3 ml of a sterile aqueous solution that they had prepared containing N-acetyl ethyl creatinate 1%, arginine 0.25%, pH 7. Using 1 ml insulin syringes with short 8 mm needles 1 ml of the solution was injected into each of 3 sites. Ten minutes later their whole body was 95+% pain free and remained so for 3.5 hours when pain was sensed to be returning. Pain in usual severity returned within another 20-30 minutes.
The next day at 9:00 AM the subject injected 5 sites, each with 1 ml of the same solution. Within 10 minutes their whole body again was 95+% pain free. This almost complete pain free state was maintained for 4 hours when very mild pain in the knees was sensed. Pain in knees and in cervical spine returned to usual degree of severity within an ensuing period of about 20 minutes.

thermal burns = assay: Example 22: pain of thermal burns, topical; conditions: for relief of burn pain: person
Description: One subject spilled boiling hot water on their left hand. Within a couple hours pain was intense. They then applied 4% solution of N-acetyl ethyl creatinate (C15) dissolved in water: ethanol: propylene glycol 5:3:2 which they had been using to relieve pain over a lateral meniscus. […] Such application was continued over the next several days until the burn pain disappeared spontaneously.
A second subject burned their forearm where they accidentally touched the hot oven rack. They immediately applied 9% solution of N-acetyl ethyl creatinate (C15) dissolved in water: ethanol: propylene glycol 5:3:2 that they were using for topical treatment of their rheumatoid arthritis. […] Repeated application were applied over the next 3 days, until the burn pain spontaneously ceased.

painful right elbow = assay: Example 24: osteoarthritis, elbow
Protocol: A subject presented with a history of painful right elbow for several weeks. They were provided with a topical solution of C15 8% in WP 82.
A subject with a history of right elbow for several months applied the above same solution to the elbo
On three other occasions, C15 1.5% aqueous solution 1 ml was injected subcutaneously in two lateral sites of the elbow and one site over extensor part of the elbow.

painful right shoulder = assay: Example 24: osteoarthritis, shoulder
Description: The same subject above has had painful right shoulder for several months.

[4] = test system: cervical and thoracic spine; assay: Example 24: osteoarthritis, spine
Protocol: The same subject above topically applied an adhesive dressing, 5 cm wide and 30 cm long, saturated with a solution of C15 4% in WP 82 to the upper spine.
Over a period of 3 months, subcutaneous injections of 0.6 ml of the above C15 solution were injected subcutaneously into each of 5 intervertebral sites of the cervical and thoracic spine.

sprained left ankle = assay: Example 27: ankle sprain pain; conditions: 4% in WP 82, 2-3 times daily for 4-5 days
Description: A subject sprained their left ankle while hiking.

erythematous pharyngitis = assay: Example 31: sore throat, spray mist
Protocol: A subject, upon arising from bed in the morning, was acutely aware of a severe sore throat. […] They were provided, in a 2 oz spray container, a 3% aqueous solution of C15 that they sprayed into their moth toward the inflamed pharynx. […] Repeated spraying during the day were followed by longer pain free intervals. They reported that at 7 PM the last pain free interval had been 1 hour. Next morning the pharyngitis had improved, and the subject used spray mist less frequently.

[5] = test system: post trauma pain in the pinned ankle; assay: Example 34: ankle pain after surgical insertion of metal screws; conditions: prior applications of C15 formulations
Protocol: A subject with above described post trauma pain at the end of each day experienced painful discomfort in the pinned ankle. […] Complete relief lasted nearly 24 hours. At the end of the next day, the ankle was as painful as the days before. Subject applied 6% C20 in same liquid vehicle.

poison ivy dermatitis = assay: Example 36: poison ivy dermatitis itch
Protocol: A subject developed poison ivy dermatitis of their forearms about 18 hours after pruning bushes. Itch was intense at 24 hours when they applied C15 10% in a lotion made up of hydrophilic ointment USP 35% diluted with 65% water. […] Duration of itch relief next was for about 10 hours and the next for 12-15 hours. Relief was longer and longer from subsequent applications. Signs and symptoms of dermatitis were gone at 4 days.

CCOC(=O)CN(C)C(N)=NC(C)=O [Compound C15, N-acetyl ethyl creatinate]
time to pain relief [1]: ≤ 2 min | extent of pain relief ([1]; person): neck pain subsided completely and did not return | extent of pain relief ([2]; 40 ml formulation applied to entire body except scalp, person): all pain ceased in all previously painful joints | duration without any sense of pain ([2]; whole body application): 4.5 h | time to pain relief ([2]; whole body application): about 5 minutes | whole body pain free ([3]; 3 ml of 1% solution (arginine 0.25%, pH 7), 1 ml into each of 3 abdominal sites, subcutaneous): ≥ 95% | duration of pain free state ([3]; 3 ml, 3 sites): 3.5 h | time to pain free state ([3]; 3 ml, 3 sites): Ten | duration of pain free state ([3]; 5 sites, each 1 ml): 4 h | time to pain free state ([3]; 5 sites, each 1 ml): ≤ 10 min | whole body pain free ([3]; next day, 5 sites, each 1 ml of the same solution): ≥ 95% | relief of burn pain (thermal burns; 4% in water: ethanol: propylene glycol 5:3:2, topical, hand): immediate relief of the burn pain | duration of relief (thermal burns; 4% solution): 4 to 5 h | relief of burn pain (thermal burns; 9% in water: ethanol: propylene glycol 5:3:2, topical, forearm): Burn pain was completely instantly relieved | duration of relief (thermal burns; 9% solution): 4 to 5 h | extent of pain relief (painful right elbow; 1.5% aqueous solution 1 ml subcutaneous, three sites of elbow, person): complete relief of pain | duration of relief (painful right elbow; 1.5% subcutaneous): 24 to 30 h | time to pain relief (painful right elbow; 1.5% subcutaneous): within an hour | relief of pain (painful right elbow; 8% in WP 82, topical multiple times, person): No pain relieve was experienced | duration of relief (painful right elbow; 8% in WP 82, topical, person): 5 to 6 h | relief of pain (painful right elbow; 8% in WP 82, topical, person): relieved pain instantaneously completely | duration of relief (painful right shoulder; subcutaneous 1 ml): 6 to 7 days | extent of pain relief (painful right shoulder; subcutaneous 1 ml of 1.5% aqueous solution, three occasions, person): complete relief of pain | time to pain relief ([4]; 4% dressing): within an hour | duration of relief ([4]; 4% dressing, until removed): about 8 hours | extent of pain relief ([4]; adhesive dressing saturated with 4% in WP 82 on upper spine, person): complete relief of pain | extent of pain relief ([4]; subcutaneous 0.6 ml into each of 5 intervertebral sites, five occasions): complete relief of pain | duration of relief ([4]; subcutaneous 0.6 ml, 5 sites): 1-4 weeks | ankle pain at end of treatment (sprained left ankle): no ankle pain was detected | relief of pain (erythematous pharyngitis; 3% aqueous solution sprayed toward pharynx): immediate complete relief of pain | duration of relief, first spraying (erythematous pharyngitis; 3% aqueous spray): 25 min | last pain free interval at 7 PM (erythematous pharyngitis; repeated spraying during the day): 1 h | extent of pain relief [5]: substantially relieve the pain but not completely | relief of itch (poison ivy dermatitis; 10% in lotion (hydrophilic ointment USP 35%, water 65%), forearms): Relief of itch was immediate | duration of itch relief (poison ivy dermatitis; first application): about 6 hours | time until signs and symptoms of dermatitis were gone (poison ivy dermatitis; repeated applications): 4 days | duration of itch relief (poison ivy dermatitis; second application): about 10 hours | duration of itch relief (poison ivy dermatitis; third application): 12 to 15 h
